Measured values reported in patent publication US12077503B2, “Substituted cyclic amides and their use as herbicides” (FMC CORPORATION, priority 2015, dated 2024).

Key:
Format in all cases: in vivo
[1] = system: giant foxtail (Setaria faberi); assay: Test G Pre-Emergence Protocol; settings: Setaria faberi, pre-emergence, 312 h, evaluated after 13 days; for pest or weed control at 15.625 g/ha: 15.625 g ai/ha; for pest or weed control at 15.625 g/ha / pest or weed control at 250 g/ha: read-out: Foxtail, Giant damage rating (100=total damage to plant; 0=no damage to plant); for pest or weed control at 62.5 g/ha: 62.5 g ai/ha, 100=total damage to plant, 0=no damage to plant, read-out: plant damage rating, Foxtail, Giant; for pest or weed control at 250 g/ha: 250 g ai/ha
Summary of the method: (§1)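 One day after sowing, pots are treated with a spray of test compound formulated in acetone/water 50:50 plus 0.5% Tween 20, giving 15.625, 62.5 or 250 g/ha. Evaluation on a 0–100 damage scale follows 13 days of glasshouse growth.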

[2] = system: ivy-leaved morning glory (Ipomoea hederacea); assay: Test G Pre-Emergence Protocol; settings: Ipomoea, pre-emergence, 312 h, evaluated after 13 days; for pest or weed control at 15.625 g/ha: 15.625 g ai/ha, read-out: Morning-glory, Ivy-leaved damage rating (100=total damage to plant; 0=no damage to plant); for pest or weed control at 62.5 g/ha: 62.5 g ai/ha, 100=total damage to plant, 0=no damage to plant, read-out: plant damage rating, Morningglory, Ivy-leaved; for pest or weed control at 250 g/ha: 250 g ai/ha, read-out: Morningglory, Ivy-leaved damage rating (100=total damage to plant; 0=no damage to plant)
Summary of the method: as §1

[3] = system: redroot pigweed (Amaranthus retroflexus); assay: Test G Pre-Emergence Protocol; settings: Amaranthus retroflexus, pre-emergence, 312 h, evaluated after 13 days; for pest or weed control at 15.625 g/ha: 15.625 g ai/ha; for pest or weed control at 15.625 g/ha / pest or weed control at 250 g/ha: read-out: Pigweed, Redroot damage rating (100=total damage to plant; 0=no damage to plant); for pest or weed control at 62.5 g/ha: 62.5 g ai/ha, 100=total damage to plant, 0=no damage to plant, read-out: plant damage rating, Pigweed, Redroot; for pest or weed control at 250 g/ha: 250 g ai/ha
Summary of the method: as §1

[4] = system: barnyardgrass (Echinochloa crus-galli); assay: Test G Pre-Emergence Protocol; settings: Echinochloa crus-galli, pre-emergence, 312 h, evaluated after 13 days; for pest or weed control at 15.625 g/ha: 15.625 g ai/ha, read-out: Barnyard grass damage rating (100=total damage to plant; 0=no damage to plant); for pest or weed control at 62.5 g/ha: 62.5 g ai/ha, 100=total damage to plant, 0=no damage to plant, read-out: plant damage rating, Barnyardgrass; for pest or weed control at 250 g/ha: 250 g ai/ha, read-out: Barnyardgrass damage rating (100=total damage to plant; 0=no damage to plant)
Summary of the method: as §1

[5] = system: velvetleaf (Abutilon theophrasti); assay: Test G Pre-Emergence Protocol; settings: Abutilon theophrasti, pre-emergence, 312 h, evaluated after 13 days; for pest or weed control at 15.625 g/ha: 15.625 g ai/ha; for pest or weed control at 15.625 g/ha / pest or weed control at 250 g/ha: read-out: Velvetleaf damage rating (100=total damage to plant; 0=no damage to plant); for pest or weed control at 62.5 g/ha: 62.5 g ai/ha, 100=total damage to plant, 0=no damage to plant, read-out: plant damage rating, Velvetleaf; for pest or weed control at 250 g/ha: 250 g ai/ha
Summary of the method: as §1

corn (Zea mays) [6] = assay: Test G Pre-Emergence Protocol; settings: Zea mays, pre-emergence, 312 h, evaluated after 13 days; for plant injury at 15.625 g/ha: 15.625 g ai/ha; for plant injury at 15.625 g/ha / plant injury at 250 g/ha: read-out: Corn damage rating (100=total damage to plant; 0=no damage to plant); for plant injury at 62.5 g/ha: 62.5 g ai/ha, 100=total damage to plant, 0=no damage to plant, read-out: plant damage rating, Corn; for plant injury at 250 g/ha: 250 g ai/ha
Summary of the method: as §1

[7] = system: giant foxtail (Setaria faberi); assay: Test G Post-Emergence Protocol; settings: Setaria faberi, post-emergence, 312 h; for pest or weed control at 15.625 g/ha: 15.625 g ai/ha, evaluated after 13 days (100=total damage to plant; 0=no damage to plant), read-out: Foxtail, Giant damage rating; for pest or weed control at 62.5 g/ha: 62.5 g ai/ha, read-out: Foxtail, Giant damage rating (100=total damage to plant; 0=no damage to plant); for pest or weed control at 62.5 g/ha / pest or weed control at 250 g/ha: evaluated after 13 days; for pest or weed control at 250 g/ha: 250 g ai/ha, read-out: damage to plant, Foxtail, Giant (100=total damage to plant; 0=no damage to plant)
Summary of the method: (§2)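 Values are percent visual injury at 13 days after treatment (0 none, 100 total). Treatment was a post-emergence spray at 15.625, 62.5 or 250 g/ha on 8-day-old pot plants kept at 24/16 °C.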

[8] = system: ivy-leaved morning glory (Ipomoea hederacea); assay: Test G Post-Emergence Protocol; settings: Ipomoea, post-emergence, 312 h; for pest or weed control at 15.625 g/ha: 15.625 g ai/ha, evaluated after 13 days (100=total damage to plant; 0=no damage to plant), read-out: Morningglory, Ivy-leaved damage rating; for pest or weed control at 62.5 g/ha: 62.5 g ai/ha, read-out: Morningglory, Ivy-leaved damage rating (100=total damage to plant; 0=no damage to plant); for pest or weed control at 62.5 g/ha / pest or weed control at 250 g/ha: evaluated after 13 days; for pest or weed control at 250 g/ha: 250 g ai/ha, read-out: damage to plant, Morningglory, Ivy-leaved (100=total damage to plant; 0=no damage to plant)
Summary of the method: as §2

[9] = system: redroot pigweed (Amaranthus retroflexus); assay: Test G Post-Emergence Protocol; settings: Amaranthus retroflexus, post-emergence, 312 h; for pest or weed control at 15.625 g/ha: 15.625 g ai/ha, evaluated after 13 days (100=total damage to plant; 0=no damage to plant), read-out: Pigweed, Redroot damage rating; for pest or weed control at 62.5 g/ha: 62.5 g ai/ha, read-out: Pigweed, Redroot damage rating (100=total damage to plant; 0=no damage to plant); for pest or weed control at 62.5 g/ha / pest or weed control at 250 g/ha: evaluated after 13 days; for pest or weed control at 250 g/ha: 250 g ai/ha, read-out: damage to plant, Pigweed, Redroot (100=total damage to plant; 0=no damage to plant)
Summary of the method: as §2

[10] = system: barnyardgrass (Echinochloa crus-galli); assay: Test G Post-Emergence Protocol; settings: Echinochloa crus-galli, post-emergence, 312 h; for pest or weed control at 15.625 g/ha: 15.625 g ai/ha, evaluated after 13 days (100=total damage to plant; 0=no damage to plant), read-out: Barnyardgrass damage rating; for pest or weed control at 62.5 g/ha: 62.5 g ai/ha, read-out: Barnyardgrass damage rating (100=total damage to plant; 0=no damage to plant); for pest or weed control at 62.5 g/ha / pest or weed control at 250 g/ha: evaluated after 13 days; for pest or weed control at 250 g/ha: 250 g ai/ha, read-out: damage to plant, Barnyardgrass (100=total damage to plant; 0=no damage to plant)
Summary of the method: as §2

[11] = system: velvetleaf (Abutilon theophrasti); assay: Test G Post-Emergence Protocol; settings: Abutilon theophrasti, post-emergence, 312 h; for pest or weed control at 15.625 g/ha: 15.625 g ai/ha, evaluated after 13 days (100=total damage to plant; 0=no damage to plant), read-out: Velvetleaf damage rating; for pest or weed control at 62.5 g/ha: 62.5 g ai/ha, read-out: Velvetleaf damage rating (100=total damage to plant; 0=no damage to plant); for pest or weed control at 62.5 g/ha / pest or weed control at 250 g/ha: evaluated after 13 days; for pest or weed control at 250 g/ha: 250 g ai/ha, read-out: damage to plant, Velvetleaf (100=total damage to plant; 0=no damage to plant)
Summary of the method: as §2

corn (Zea mays) [12] = assay: Test G Post-Emergence Protocol; settings: Zea mays, post-emergence, 312 h; for plant injury at 15.625 g/ha: 15.625 g ai/ha, evaluated after 13 days (100=total damage to plant; 0=no damage to plant), read-out: Corn damage rating; for plant injury at 62.5 g/ha: 62.5 g ai/ha, read-out: Corn damage rating (100=total damage to plant; 0=no damage to plant); for plant injury at 62.5 g/ha / plant injury at 250 g/ha: evaluated after 13 days; for plant injury at 250 g/ha: 250 g ai/ha, read-out: damage to plant, Corn (100=total damage to plant; 0=no damage to plant)
Summary of the method: as §2

Compound | pest or weed control at 15.625 g/ha [1] [%] | pest or weed control at 62.5 g/ha [1] [%] | pest or weed control at 250 g/ha [1] [%] | pest or weed control at 15.625 g/ha [2] [%] | pest or weed control at 62.5 g/ha [2] [%] | pest or weed control at 250 g/ha [2] [%] | pest or weed control at 15.625 g/ha [3] [%] | pest or weed control at 62.5 g/ha [3] [%] | pest or weed control at 250 g/ha [3] [%] | pest or weed control at 15.625 g/ha [4] [%] | pest or weed control at 62.5 g/ha [4] [%] | pest or weed control at 250 g/ha [4] [%] | pest or weed control at 15.625 g/ha [5] [%] | pest or weed control at 62.5 g/ha [5] [%] | pest or weed control at 250 g/ha [5] [%] | plant injury at 15.625 g/ha (corn (Zea mays) [6]) [%] | plant injury at 62.5 g/ha (corn (Zea mays) [6]) [%] | plant injury at 250 g/ha (corn (Zea mays) [6]) [%] | pest or weed control at 15.625 g/ha [7] [%] | pest or weed control at 62.5 g/ha [7] [%] | also measured
COc1c(Cl)ccc([C@H]2CNC(=O)[C@@H]2C(=O)Nc2cccc(F)c2F)c1F (racemic) [Compound 1472] | 10 | 50 | 80 | 0 | 0 | 0 | 0 | 0 | 0 | 10 | 40 | 80 | 0 | 0 | 0 | 0 | 0 | 20 | 10 | 50 | pest or weed control at 250 g/ha [7]: 70%; pest or weed control at 15.625 g/ha [8]: 20%; pest or weed control at 62.5 g/ha [8]: 20%; pest or weed control at 250 g/ha [8]: 20%; pest or weed control at 15.625 g/ha [9]: 0%; pest or weed control at 62.5 g/ha [9]: 10%; pest or weed control at 250 g/ha [9]: 10%; pest or weed control at 15.625 g/ha [10]: 10%; pest or weed control at 62.5 g/ha [10]: 30%; pest or weed control at 250 g/ha [10]: 50%; pest or weed control at 15.625 g/ha [11]: 0%; pest or weed control at 62.5 g/ha [11]: 10%; pest or weed control at 250 g/ha [11]: 10%; plant injury at 15.625 g/ha (corn (Zea mays) [12]): 10%; plant injury at 62.5 g/ha (corn (Zea mays) [12]): 20%; plant injury at 250 g/ha (corn (Zea mays) [12]): 40%
Cc1c(Cl)ccc([C@@H]2CN(C)C(=O)[C@H]2C(=O)Nc2cccc(F)c2F)c1F (racemic) [Compound 1473] | 50 | 70 | 80 | 10 | 0 | 10 | 0 | 0 | 70 | 20 | 40 | 70 | 0 | 0 | 0 | 0 | 0 | 10 | 60 | 70 | pest or weed control at 250 g/ha [7]: 70%; pest or weed control at 15.625 g/ha [8]: 0%; pest or weed control at 62.5 g/ha [8]: 10%; pest or weed control at 250 g/ha [8]: 20%; pest or weed control at 15.625 g/ha [9]: 0%; pest or weed control at 62.5 g/ha [9]: 0%; pest or weed control at 250 g/ha [9]: 10%; pest or weed control at 15.625 g/ha [10]: 40%; pest or weed control at 62.5 g/ha [10]: 40%; pest or weed control at 250 g/ha [10]: 50%; pest or weed control at 15.625 g/ha [11]: 0%; pest or weed control at 62.5 g/ha [11]: 0%; pest or weed control at 250 g/ha [11]: 10%; plant injury at 15.625 g/ha (corn (Zea mays) [12]): 20%; plant injury at 62.5 g/ha (corn (Zea mays) [12]): 10%; plant injury at 250 g/ha (corn (Zea mays) [12]): 10%
COc1cc([C@@H]2CN(C)C(=O)[C@H]2C(=O)Nc2cccc(F)c2F)ccc1Cl (racemic) [Compound 1474] | 50 | 80 | 90 | 10 | 0 | 10 | 0 | 0 | 20 | 10 | 70 | 80 | 0 | 0 | 0 | 0 | 0 | 40 | 60 | 70 | pest or weed control at 250 g/ha [7]: 70%; pest or weed control at 15.625 g/ha [8]: 40%; pest or weed control at 62.5 g/ha [8]: 50%; pest or weed control at 250 g/ha [8]: 50%; pest or weed control at 15.625 g/ha [9]: 30%; pest or weed control at 62.5 g/ha [9]: 0%; pest or weed control at 250 g/ha [9]: 30%; pest or weed control at 15.625 g/ha [10]: 20%; pest or weed control at 62.5 g/ha [10]: 50%; pest or weed control at 250 g/ha [10]: 60%; pest or weed control at 15.625 g/ha [11]: 10%; pest or weed control at 62.5 g/ha [11]: 0%; pest or weed control at 250 g/ha [11]: 20%; plant injury at 15.625 g/ha (corn (Zea mays) [12]): 10%; plant injury at 62.5 g/ha (corn (Zea mays) [12]): 30%; plant injury at 250 g/ha (corn (Zea mays) [12]): 40%
